Several values for one entry are separate records, joined by “and”; a condition that tells them apart may be missing. Equal entries are not always repeated. Activity calls are given as the source filed them.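 The calls were made as follows: active = compounds giving half or more protection of infected cells from virus-caused growth loss, again on retest; inactive = the rest.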
Tested on: CEM cells HIV-1 protection, formazan growth assay
Assay: NCI AIDS Antiviral Assay
Conditions: for IC50: measured here: growth of uninfected CEM cells
Description: The ability of compounds to protect human CEM cells from HIV-1 infection is measured as a screen for new compounds capable of inhibiting the HIV virus. Five concentrations of drug were tested on uninfected and infected cells and cell growth was measured using a soluble formazan assay. […] Compounds that provided at least 50% protection were retested. Compounds that provided at least 50% protection on retest were listed as moderately active. Compounds that reproducibly provided 100% protection were listed as confirmed active. […] Note that the inability to provide protection could be due to toxicity.

Row | SMILES | EC50 | IC50 | outcome
1 | CN(C)c1ccc(/C=C(\C#N)c2ccc(F)cc2)cc1 | > 20 µM | 1.07 µM | 
2 | Cc1cn(C2CC(Sc3ccccn3)C(CO)O2)c(=O)[nH]c1=O (stereo not given) | > 372 µM | 316 µM | 
3 | Cc1c(OC(C)C(=O)O)ccc2c(-c3ccccc3)cc(=O)oc12 (stereo not given) |  |  | inactive
4 | COc1ccc2c(c1)c1c(n2CCN(C)C)-c2cccc(OC)c2CC1 | > 200 µM | 11 µM | 
5 | COC(=O)c1c(C)cc2c(c1O)C1(O)C(=O)c3cc4c(c(O)c3C(=O)C1(OC)C(O)C2)C(=O)C=C(NC1OC(C)C(OC)C(O)C1OC)C4=O (stereo not given) |  |  | inactive
6 | Cc1ccnc2c1NC(=O)c1cccnc1N2C1CC1 | 0.0437 µM | 195 µM | 
7 | C=CCn1c(N)c(N=O)c(=O)n(C)c1=O | > 200 µM | > 200 µM | 
8 | N#Cc1c(=O)[nH]c(=O)n2c1[nH]c1ccccc12 | > 200 µM | > 200 µM | 
9 | C=C1CC(Cn2cc(C)c(=O)[nH]c2=O)(c2ccc(-c3ccccc3)cc2)OC1=O (stereo not given) | > 20 µM | 0.288 µM | 
10 | C=CC(C)(C)c1[nH]cnc1/C=C1\NC(=O)[C@H](C(C)C)NC1=O | > 200 µM | 2.4 µM | 
11 | COC(=O)CCC(=O)C(CC(=O)OC)C(=O)CCC(=O)NCCc1ccccc1 (stereo not given) | > 27.5 µM | > 27.5 µM | 
12 | COC(=O)/C(C#N)=C\N1CCNC1=S | > 200 µM | > 200 µM | 
13 | CC(C)(CN1CCCCC1)C(=O)/C=C/c1ccc(Cl)c(Cl)c1 | > 33.1 µM | 3.09 µM | 
14 | Clc1ccc(C(=C=C(c2ccccc2)c2ccccc2)c2ccc(Cl)cc2)cc1 | > 22.9 µM | > 22.9 µM | 
15 | [Cl-].[Co+2].c1cnc2c(c1)ccc1cccnc12.c1cnc2c(c1)ccc1cccnc12.c1cnc2c(c1)ccc1cccnc12 | > 100 µM | 0.977 µM | 
16 | CCOC(=O)C1=C(N)Oc2cc(O)cc(O)c2C1c1ccccc1 (stereo not given) |  |  | inactive
17 | Cc1cccc(NC(=S)Nc2cccc(Cl)c2)n1 | > 200 µM | > 200 µM | 
18 | COc1cc(C(C2=C(O)c3ccccc3C(=O)C2=O)C2=C(O)c3ccccc3C(=O)C2=O)cc(OC)c1OC | > 200 µM | 72.4 µM | 
19 | O=c1cc(CO)oc2c3c(cc(O)c12)OCC(COC1OC(CO)C(O)C(O)C1O)=CC3 (stereo not given) | > 550 µM | 288 µM | 
20 | COc1cc([C@@H]2c3cc4c(cc3[C@H](O)[C@H]3COC(=O)[C@H]23)OCO4)cc(OC)c1OC | > 2.29 µM | 0.00479 µM | 
21 | O=C(O)CSCc1cc2c(O)c(c1)Cc1cc(CSCC(=O)O)cc(c1O)Cc1cc(CSCC(=O)O)cc(c1O)Cc1cc(CSCC(=O)O)cc(c1O)C2 | > 22.4 µM | > 22.4 µM | 
22 | COc1ccc(S(=O)(=O)c2ccccc2[N+](=O)[O-])cc1 |  |  | active

Row | SMILES | EC50 | IC50 | outcome
23 | CCCCCCCCCCCCCCCC(=O)OCC(O)CO (stereo not given) | > 15.8 µM | > 15.8 µM | 
24 | NC1(C(=O)O)CCCCC1c1ccccc1 (stereo not given) | > 42.7 µM | > 42.7 µM | 
25 | N#CC1CCCCC1NC1(C#N)CCCCC1 (stereo not given) | > 195 µM | > 195 µM | 
26 | COc1cc(N(CCC#N)CCC#N)ccc1/C(N=Nc1ccc([N+](=O)[O-])cc1)=N/NC(=O)c1cc(Br)ccc1O | > 200 µM | 33.1 µM | 
27 | O=C1NC(=O)C(Cc2cccc(Cl)c2)C(=O)N1 | > 200 µM | > 200 µM | 
28 | O=Cc1ccc(-c2cccc([N+](=O)[O-])c2)s1 | > 200 µM | 166 µM | 
29 | Cc1ccc(C2SCC(=O)N2NC(=O)c2ccncc2)s1 (stereo not given) | > 200 µM | > 200 µM | 
30 | O=C1c2cc3c(cc2NC(c2ccccc2F)C1O)OCO3 (stereo not given) | > 200 µM | 12 µM | 
31 | C[Si](C)(C)/N=C1\N2C(=NC1(C(F)(F)F)C(F)(F)F)Sc1ccccc12 |  |  | inactive
32 | N#CC(C#N)=Cc1ccccc1Br | > 191 µM | 3.31 µM | 
33 | Nc1nc2c(nc(N)n2Cc2ccccc2)c(=O)[nH]1 | > 74.1 µM | > 74.1 µM | 
34 | N#C/C(=C\c1ccc(O)c(O)c1)C(=O)NCCCCCCCCNC(=O)/C(C#N)=C/c1ccc(O)c(O)c1 | > 200 µM | 13.8 µM | 
35 | COc1ccc(C2c3[nH]c4ccccc4c3CCN2O)cc1 (stereo not given) |  |  | inactive
36 | CN1CCC2(CC1)SSC1(CCN(C)CC1)S2 | > 200 µM | 191 µM | 
37 | C=C(C)C1CC[C@]2(C(=O)O)CCC3(C)[C@H](CCC4[C@@]5(C)CC[C@H](OC6OC(CO)C(O)C6OC6OC(C)C(O)C(O)C6O)[C@@](C)(CO)C5CC[C@]43C)C12 (stereo not given in full) |  |  | inactive
38 | O=C1CC(c2[nH]nc3ccccc23)C(=O)N1c1ccccc1 (stereo not given) |  |  | inactive
39 | CC1(C)C(=O)C2(C(=O)O)CCC1C2 (stereo not given) | > 200 µM | > 200 µM | 
40 | CC(C)N(C(=O)C12C3C4C1C1C2C3C41C#N)C(C)C (stereo not given) | > 513 µM | > 513 µM | 
41 | CC1(C)CC(=O)C2C(C1)Nc1ccccc1NC2c1cccc([N+](=O)[O-])c1 (stereo not given) | > 200 µM | 93.3 µM | 
42 | Clc1cccc(-c2nc3cccc4c3n2Cc2ncccc2-4)c1 | > 200 µM | > 200 µM | 
43 | COc1cccc2c1C(=O)c1c(O)c3c(c(O)c1C2=O)CC1(O)CC3OC1(C)OC (stereo not given) | > 4.57 µM | > 4.57 µM | 
44 | CC1(C)CNC[C@@](C)(O)C(=O)[N-]C(C)(C)CNC[C@@](C)(O)C(=O)[N-]1.[Ni+2] | > 200 µM | 72.4 µM | 

Row | SMILES | EC50 | IC50 | outcome
45 | CCOC(=O)c1cc(NC(=O)N(CCC#N)CCN(C(=O)N[C@@H](Cc2ccccc2)C(=O)N[C@@H](CC(C)C)C(=O)NC)c2ccccc2)ccc1OC | > 200 µM | 29.5 µM | 
46 | Nc1ncnc2c1ncn2[C@H]1CC[C@]2(CO)C[C@H]12 | > 25.1 µM | > 25.1 µM | 
47 | COc1cc(SSc2cc(OC)c(OC)cc2C(=O)N2CSC[C@H]2C(=O)O)c(C(=O)N2CSC[C@@H]2C(=O)O)cc1OC | > 200 µM | > 200 µM | 
48 | CC[C@@H]1OC2(C)CC(S(=O)(=O)c3ccccc3O)CC1O2 (stereo not given in full) | > 794 µM | 741 µM | 
49 | Cc1ccc(C(O)/C(=N/N)c2nc3ccc([N+](=O)[O-])cc3[nH]c2=O)cc1 (stereo not given) | > 537 µM | 457 µM | 
50 | N#CNC(=NCCO)NCCO | > 525 µM | > 525 µM | 
51 | O=S1(=O)C2C=CCC1C(O)CC2 (stereo not given) | > 933 µM | > 933 µM | 
52 | O=[N+]([O-])/C(C(Cl)=C(Cl)Cl)=C(/Sc1ccccc1)N1CCCCC1 | > 195 µM | 12.9 µM | 
53 | CC1(C)C2CC1C(/C=N\OCC(=O)O)=CC2=O (stereo not given) | > 200 µM | > 200 µM | 
54 | Cc1cc(C(F)(F)F)nc2nc3ccccc3n12 | > 200 µM | > 200 µM | 
55 | CCN=C(NC(=O)c1c(Cl)cccc1Cl)SCSC(=NCC)NC(=O)c1c(Cl)cccc1Cl | > 200 µM | 170 µM | 
56 | NC(=O)C12CC3CC(CC(F)(C3)C1)C2 | > 1260 µM | > 1260 µM | 
57 | COc1ccc(C(OCC2OC(n3cnc4c(=O)n(Cc5ccccc5[N+](=O)[O-])nnc43)C(O)C2O)(c2ccccc2)c2ccc(OC)cc2)cc1 (stereo not given) |  |  | inactive
58 | O=c1nc2c(c(-c3ccccc3Cl)[nH]1)COC/C2=C\c1ccccc1Cl | > 200 µM | 89.1 µM | 
59 | CCOC(=O)CCCN(C(=O)c1ccccc1)c1scc(-c2ccccc2)c1C(=O)OCC | > 200 µM | 11.5 µM | 
60 | Cc1c(C)c2c(c(N)c1C#N)C(=O)N(CCN1CCNCC1)C2=O | > 200 µM | 20.4 µM | 
61 | CCN(CC)CCC(=O)c1ccc(C)cc1 | > 6170 µM | 331 µM | 
62 | COC(=O)C1C2C/C(=N\O)C1C2 (stereo not given) | > 501 µM | > 501 µM | 
63 | C(/C=N/NC1=NCCCN1)=N\NC1=NCCCN1 | 162 µM | > 200 µM | 
64 | O=c1c2cc([N+](=O)[O-])ccc2n(Cc2ccccc2)n1Cc1ccccc1 | > 200 µM | 13.2 µM | 
65 | CC[n+]1c([S-])nn(C)c1-c1cnccn1 | > 200 µM | > 200 µM | 
66 | O=C(Cc1nc2ccccc2o1)C(=O)Nc1cccc(C(F)(F)F)c1 |  |  | inactive

Row | SMILES | EC50 | IC50 | outcome
67 | O=[N+]([O-])c1cccc(N=Cc2ccc(Cl)cc2)c1 | > 200 µM | 123 µM | 
68 | CCOC(=O)CCC1(C(=O)OCC)CCCC1=O (stereo not given) | > 263 µM | > 263 µM | 
69 | O=C1OCC(C2CCCCC2)C(Br)=C1Br (stereo not given) | > 200 µM | 56.2 µM | 
70 | O=C(O)CNC(=O)C(CSC(=O)OCC1c2ccccc2-c2ccccc21)NC(=O)CCC(NC(=O)OCC1c2ccccc2-c2ccccc21)C(=O)O (stereo not given) | > 200 µM | 107 µM | 
71 | O=C(O)CCCCCNC(=O)CCC(CN(CC(=O)OCc1ccccc1)CC(=O)OCc1ccccc1)N(CC(=O)OCc1ccccc1)CC(=O)OCc1ccccc1 (stereo not given) |  |  | inactive
72 | CC(=O)NC1(C)C(C)C2CC1C(C)C2(C)C (stereo not given) | > 85.1 µM | > 85.1 µM | 
73 | COc1ccc(/C=C2/N=C(N/N=C\C(O)C(O)C(O)C(O)CO)NC2=O)cc1 (stereo not given) |  | 77.6 µM and 112 µM | 
74 | Nc1cccc2c1C1=NNC(=O)CC1C2 (stereo not given) |  |  | inactive
75 | CC1=C(C(=O)O)CCC2(C)C3=C(CCC12)C(=O)C(C(C)C)=CC3=O (stereo not given) | > 200 µM | 12.3 µM | 
76 | COc1ccc(N(c2ccc(C#N)cc2)c2ccc(C#N)cc2)cc1 | > 45.7 µM | 33.1 µM | 
77 | CP1CCC(O)(c2ccccc2)CC1 (stereo not given) | > 200 µM | > 200 µM | 
78 | O=C1OC(Cl)(C(Cl)(Cl)Cl)C(=O)OC1(Cl)C(Cl)(Cl)Cl (stereo not given) | > 200 µM | > 200 µM | 
79 | Nc1nnc(N)n1NC(=O)C(=O)Nc1ccc([N+](=O)[O-])cc1 | > 151 µM | > 151 µM | 
80 | Cc1ccc(-n2c(N)c(C#N)c3c(c2=S)CCC3)cc1 | > 129 µM | > 129 µM | 
81 | CC[n+]1c(/C=C/c2ccc(N(CCCl)CCCl)cc2)ccc2cc(Br)ccc21 |  |  | inactive
82 | C1CCc2nnnn2CC1 | > 200 µM and 120 µM | > 200 µM and 724 µM | 
83 | OC1C2CCCCN2C[C@@H](O)[C@H]1O (stereo not given in full) | > 200 µM | > 200 µM | 
84 | CC(=O)C(C)(O)C(OP(=O)(O)O)c1ccccc1 (stereo not given) | > 200 µM | > 200 µM | 
85 | O=C(COc1ccc(OCC(=O)N2C(=O)CSC2=Nc2ccccc2)cc1)N1C(=O)CSC1=Nc1ccccc1 | > 200 µM | 25.7 µM | 
86 | COC(=O)CCC(=O)Nc1cccc(C(F)(F)F)c1 | > 129 µM | > 129 µM | 
87 | CCCC(C)(O)CCC(O)(CCC)CCC (stereo not given) | > 200 µM | > 200 µM | 
